Assay results reported in US4895853A, “Antitumor alkaloids” (priority 1986, dated 1990).
In brackets after ≈: the same amount, converted by molar mass. Where two headings read alike, the source gives them in different places.

System: P388 mouse leukemia cells
Test: P388 mouse leukemia cell assay (growth inhibition, 48 h)
Type: cell-based
Details: read-out: P388 IC50
Method: The following assay method was utilized to illustrate the antitumor effectiveness of the compositions of Formulae I-V corresponding to manzamines B-D of the examples.
P388 mouse leukemia cells are grown in Dulbecco MEM medium with 10% horse serum, 4 mM glutamine, and 20 ug/ml gentamycin (Biologos, Inc.). Cells are incubated in 10% CO2 and subcultured 2 times per week.
1. Add compound to each well of a 24-well plate or tube and allow solvent to evaporate to dryness.
2. Add 2 ml (1.2×10^5) cells to each well or tube and mix.
3. Incubate in 10% CO2 at 37° for 48 hours.
4. Read platees with an inverted microscope, scoring activity from 1+ to 4+ as follows: ND (not detectable), >90%; 1+, 75-90%; 2+, 50-74%; 3+, 25-49%; 4+, <25% of control growth. Cell counts are performed on each tube and results are reported as percent of control. Alternatively, scoring may be expressed as IC50 which represents the minimum concentration of the composition required to inhibit 50% of the cell growth on the plate. […]

Row | IC50 (P388 mouse leukemia cells, 48 hours at 37°, 10% CO2) | Structure (SMILES) | IC50 (Mus musculus, P388, 48 h)
1 | 3 µg/mL (≈ 8.63 µM) | C1=C\CCCCN(CCc2nccc3c2[nH]c2ccccc23)CCCC/1 [Manzamine C, manzamine C] | –
2 | – | C1=C\CCC23CN4CCCC/C=C\CCC5(OC5C(c5nccc6c5[nH]c5ccccc56)C2CC4)C3NCCCC/1 (stereo not shown) [Manzamine B, manzamine B] | 6 µg/mL (≈ 10.9 µM)
3 | – | OC12C=C(c3nccc4c3[nH]c3ccccc34)C3CCN(CCCC/C=C\CC1)CC31CC3/C=C\CCCCN3C21 (stereo not shown) [Manzamine A, manzamine A, reference compound] | 0.075 µg/mL (≈ 0.137 µM)
4 | – | OC12C=C(C3NCCc4c3[nH]c3ccccc43)C3CCN(CCCC/C=C\CC1)CC31CC3/C=C\CCCCN3C21 (stereo not shown) [Manzamine D, manzamine D] | 0.5 µg/mL (≈ 0.904 µM)
